Results on 32 compounds are retold here after patent publication US8822513B2, “Compounds for treatment of cancer” (GTX, Inc., priority 2010, dated 2014).

Read-outs that look alike come from different tables or passages of the source.

The test system of data set [1] is three melanoma cell lines and four human prostate cancer cell lines. In words: SRB cytotoxicity, melanoma and prostate cancer cell lines (ranges and averages over the panel). The format is cell-based. The note with it: for antiproliferative activity (in words): Tables 1-3.
Data set [2] is described as follows: Metabolic stability in human liver microsomes.
The next data set deals with LNCaP cells. In words: SRB cytotoxicity assay, LNCaP. The format is cell-based, human. To be noted: read-out: IC50 ± SEM LNCaP. The text has this:
(§1) Cells were stained with SRB solution.

For the next data set, the system named is PC-3 cells. The note with it: 96 h.
Description: as §1
Cells were stained with sulphorhodamine B (SRB) solution.

Data set [3] concerns microtubules in WM-164 melanoma cells. Nature of the data set: Microtubule imaging (immunofluorescence), WM-164. The class given is cell-based, human. To be noted: 18 h.
The next data set has as its system B16-F1 melanoma cells. In words: B16-F1 melanoma colony formation assay in soft agar. The note with it: 14 days; tested 20, 100, 500 nM. The format is cell-based, mouse. How it is done: B16-F1 melanoma cells were plated at a colony-forming density (2000 cells per well on six-well plates) on top of 0.8% base agar. Cells were grown in 0.4% agar together with DMEM medium supplemented with fetal bovine serum and an antibiotic-antimycotic solution at 37° C. in an atmosphere of 95% air and 5% CO2. […] Compounds were added to the media from 1 mM DMSO stock solutions, and a corresponding dilution of DMSO was used as control. Cells were grown for 14 days. Plates were photographed, and the number of colonies was measured by Artek 880 Automated Colony Counter (Artek Systems Corporation, Farmingdale, N.Y.).

Another data set has as its system PPC-1 cells. The note with it: read-out: IC50 ± SEM PPC-1; Table 12; 96 h.
Description: as §1

For the next data set, the system named is DU 145 cells. In words: SRB cytotoxicity assay, DU 145. The format is cell-based, human. To be noted: Table 12; 96 h; read-out: IC50 ± SEM Du 145.
Description: as §1

A further data set relates to HUVEC monolayers. In words: Endothelial monolayer permeability assay (FITC-dextran, transwell). The note with it: 1, 2, 4 h.
The test system of another data set is PC-3/TxR xenografts. The class given is in vivo. To be noted: for Tumor size Start: PC-3/TxR xenograft.
Another data set concerns A375 melanoma xenografts. In words: In vivo efficacy, A375 melanoma xenograft in nude mice (SMART compounds). Details: species or system mouse. To be noted: Melanoma (A375) xenograft, 20 mg/kg i.p.
For data set [4], the system named is tubulin (colchicine, vinblastine, paclitaxel binding sites). In words: MS competitive binding assay. The text has this:
Each reaction was run in triplicate.

The mark [5] stands for this setting: average of all seven cell lines, read-out: average IC50.
Setting [6] is: read-out: IC50 ± SEM PC-3, Table 12.

Turning to `COc1cc(C(=O)c2cccc(-c3ccccc3)c2)cc(OC)c1OC` [1a, Biphenyl-3-yl(3,4,5-trimethoxyphenyl)methanone], the “antiproliferative activity (in words)” value in data set [1] is reported as “hundreds of nanomolar range”.
Same read-out and setting: next, `COc1cc(C(O)c2csc(-c3ccccc3)n2)cc(OC)c1OC` (centres unmarked) [2b, (2-Phenylthiazol-4-yl)(3,4,5-trimethoxyphenyl)methanol]: “inactive”.
Consider `COc1cc(/C(=N/O)c2csc(-c3ccccc3)n2)cc(OC)c1OC` [2e-cis, (Z)-(2-Phenylthiazol-4-yl)(3,4,5-trimethoxyphenyl)methanone oxime], for which, in [1], the “fold more activity than anti-isomer 2e-trans” value is given as 10 fold. Also, the “Half life in Human liver microsome” value in data set [2] (Table 20) was determined as 35 min.
Regarding `COc1cc(C(=O)c2csc(-c3cc(F)c(F)c(F)c3)n2)cc(OC)c1OC` [2p], in the data set on LNCaP cells (Table 6), the IC50 was above 10 µM.
As to `CNCc1ccc(-c2nc(C(=O)c3cc(OC)c(OC)c(OC)c3)cs2)cc1.Cl` [2s, (2-(4-((Methylamino)methyl)phenyl)thiazol-4-yl)(3,4,5-trimethoxyphenyl)methanone hydrochloride], the “antiproliferative activity (in words)” value in data set [1] is “abrogated activity”.
Regarding `COc1cc(C(=O)c2csc(-c3ccc(CN(C)C)cc3)n2)cc(OC)c1OC.Cl` [2u, (2-(4-((Dimethylamino)methyl)phenyl)thiazol-4-yl)(3,4,5-trimethoxyphenyl)methanone hydrochloride], the “antiproliferative activity (in words)” value in data set [1] was “abrogated activity”.
On the same count and under the same terms, next, `COc1cc(/C=C\c2csc(-c3ccccc3)n2)cc(OC)c1OC` [3a, (Z)-2-Phenyl-4-(3,4,5-trimethoxystyryl)thiazole]: “lost activity”.
For the compound `O=S(=O)(c1ccccc1)n1ccnc1-c1ccccc1` [10a, 2-phenyl-1-(phenylsulfonyl)-1H-imidazole], in the data set with PC-3 cells (read-out: IC50 PC-3, Table 11), the 50% inhibitory concentration (IC50) is above 10 µM.
Still for that read-out and setting: next, `O=S(=O)(c1ccccc1)n1ccnc1-c1ccc(OCc2ccccc2)cc1` [10j, 2-(4-(benzyloxy)phenyl)-1-(phenylsulfonyl)-1H-imidazole]: above 10 µM; `O=[N+]([O-])c1ccc(-c2nccn2S(=O)(=O)c2ccccc2)cc1` [10x, 2-(4-nitrophenyl)-1-(phenylsulfonyl)-1H-imidazole]: above 10 µM.
Turning to `COc1cc(C(=O)n2ccnc2-c2ccccc2)cc(OC)c1OC` [12aaa, (2-phenyl-1H-imidazol-1-yl)(3,4,5-trimethoxyphenyl)methanone], the half-inhibitory concentration (IC50) with PC-3 cells (read-out: IC50 PC-3, Table 11) is above 10 µM.
The same measure, in the same setting: next, `COc1ccc(C(=O)n2ccnc2-c2ccccc2)cc1` [12aba, (4-methoxyphenyl)(2-phenyl-1H-imidazol-1-yl)methanone]: above 10 µM.
On the same count and under the same terms, the value for `COc1ccc(C(=O)c2c[nH]c(-c3ccccc3)n2)cc1OC` [12ae, (3,4-dimethoxyphenyl)(2-phenyl-1H-imidazol-4-yl)methanone] was above 10 µM.
Regarding `O=C(c1cccc(F)c1)c1c[nH]c(-c2ccccc2)n1` [12ag, (3-fluorophenyl)(2-phenyl-1H-imidazol-4-yl)methanone], the IC50 with PC-3 cells (read-out: IC50 PC-3, Table 11) was above 10 µM.
`COc1ccc(-c2nc(C(=O)c3ccc(F)cc3)c[nH]2)cc1` [12cb, (4-fluorophenyl)(2-(4-methoxyphenyl)-1H-imidazol-4-yl)methanone]: in data set [3], the effect on microtubules entry is recorded as “microtubule fragmentation”. For the same compound, the “lowest tested concentration with effective inhibition of colony formation” value in the data set on B16-F1 melanoma cells is reported as 20 nM.
In the same order, the values of `COc1cc(C(=O)c2c[nH]c(-c3ccc(C)cc3)n2)cc(OC)c1OC` [12da, (2-(p-tolyl)-1H-imidazol-4-yl)(3,4,5-trimethoxyphenyl)methanone] are “microtubule fragmentation” and 20 nM.
Take `COc1cc(C(=O)c2c[nH]c(-c3cc(OC)c(OC)c(OC)c3)n2)cc(OC)c1OC` [12ea, (3,4,5-trimethoxyphenyl)(2-(3,4,5-trimethoxyphenyl)-1H-imidazol-4-yl)methanone]: the IC50 is above 10 µM in the data set with PPC-1 cells; above 10 µM in [1] (setting [5]); above 10 µM with PC-3 cells (setting [6]); above 10 µM with LNCaP cells (Table 12, 96 h); above 10 µM in the data set with DU 145 cells.
Turning to `COc1cc(-c2nc(C(=O)c3ccc(F)cc3)c[nH]2)cc(OC)c1OC` [12eb, (4-fluorophenyl)(2-(3,4,5-trimethoxyphenyl)-1H-imidazol-4-yl)methanone], the IC50 was above 10 µM in the data set on PPC-1 cells; above 10 µM in data set [1] (setting [5]); above 10 µM with PC-3 cells (setting [6]); above 10 µM with LNCaP cells (Table 12, 96 h); above 10 µM in the data set with DU 145 cells.
For `O=C(c1ccc(F)cc1)c1c[nH]c(-c2ccc(Cl)cc2)n1` [12fb, (2-(4-chlorophenyl)-1H-imidazol-4-yl)(4-fluorophenyl)methanone], in the data set with B16-F1 melanoma cells, the “lowest tested concentration with effective inhibition of colony formation” value is on record as 100 nM.
In the case of `O=C(c1ccc(F)cc1)c1c[nH]c(-c2ccccc2C(F)(F)F)n1` [12ib, (4-fluorophenyl)(2-(2-(trifluoromethyl)phenyl)-1H-imidazol-4-yl)methanone], the IC50 in data set [1] (setting [5]) was above 10 µM.
For `O=C(c1ccc(F)cc1)c1c[nH]c(-c2ccc(OCc3ccccc3)cc2)n1` [12jb, (2-(4-(benzyloxy)phenyl)-1H-imidazol-4-yl)(4-fluorophenyl)methanone], the “increase in activity compared with 12kb” value in data set [1] came to 440 fold.
In the case of `COc1cc(C(=O)c2c[nH]c(-c3ccc(Br)cc3)n2)cc(OC)c1OC` [12la, (2-(4-bromophenyl)-1H-imidazol-4-yl)(3,4,5-trimethoxyphenyl)methanone], the half-maximal inhibitory concentration (IC50) in data set [1] (Homo sapiens, text on Tables 1, 2, 13, read-out: IC50 (range over cell lines)) was in the range of 1 to 50 µM.
Take `O=C(c1cc(O)c(O)c(O)c1)c1c[nH]c(-c2cc(O)c(O)c(O)c2)n1` [13ea, (3,4,5-trihydroxyphenyl)(2-(3,4,5-trihydroxyphenyl)-1H-imidazol-4-yl)methanone]: the IC50 was above 10 µM in the data set with PPC-1 cells; above 10 µM in the data set on PC-3 cells (setting [6]); above 10 µM in the data set with LNCaP cells (Table 12, 96 h); above 10 µM in the data set on DU 145 cells.
In the case of `O=C(c1cc(O)c(O)c(O)c1)c1c[nH]c(-c2ccc(Cl)cc2)n1` [13fa, (2-(4-chlorophenyl)-1H-imidazol-4-yl)(3,4,5-trihydroxyphenyl)methanone], the IC50 in the data set on PPC-1 cells was above 10 µM.
For `COc1cc(C(=O)[C@H]2COC(c3ccccc3)=N2)cc(OC)c1OC` [35a, (2R)-(2-Phenyl-4,5-dihydro-oxazol-4-yl)-(3,4,5trimethoxy-phenyl)-methasone], the “antiproliferative activity (in words)” value in [1] is recorded as “hundreds of nanomolar range”.
Take `COc1cc(C(=O)c2coc(-c3ccccc3)n2)cc(OC)c1OC` [36a, (2-Phenyl-oxazol-4-yl)-(3,4,5-trimethoxy-phenyl)-methanone]: the “antiproliferative activity (in words)” value in data set [1] is “hundreds of nanomolar range”.
Consider `COc1ccc(S(=O)(=O)Nc2cccnc2Nc2ccc(O)cc2)cc1` [ABT-751, reference compound], for which the effect on microtubules result in [3] is listed as “microtubule fragmentation”.
Regarding `COc1ccc(/C=C\c2cc(OC)c(OC)c(OC)c2)cc1O` [CA4, Combretastatin A-4], the “permeability of endothelial cell monolayer” value (“permeability” below) with HUVEC monolayers was “increased permeability”.
For `CC(=O)O[C@@]12CO[C@@H]1C[C@H](O)[C@@]1(C)C(=O)[C@H](O)C3=C(C)[C@@H](OC(=O)[C@H](O)[C@@H](NC(=O)OC(C)(C)C)c4ccccc4)C[C@@](O)([C@@H](OC(=O)c4ccccc4)[C@H]21)C3(C)C` [Docetaxel, reference compound], the “Tumor size Start” value with PC-3/TxR xenografts (IV 10 mpk, day 1 and 9, end point day 19) stood at 143 ± 20 mm^3.
With `COc1cccc2c1C(=O)c1c(O)c3c(c(O)c1C2=O)C[C@@](O)(C(=O)CO)C[C@@H]3O[C@H]1C[C@H](N)[C@H](O)[C@H](C)O1` [Doxorubicin], in the data set on HUVEC monolayers, the “permeability” value is listed as “did not induce any change”.
`COc1cc(C(=O)c2csc(-c3ccccc3)n2)cc(OC)c1OC` [SMART-H] gave a T-C in the data set on A375 melanoma xenografts of 10 days. Also, in the data set with A375 melanoma xenografts (doubling time 4.6 d), the “Total log cell kill” value is on record as 0.7.
Regarding `COc1cc(C(=O)c2csc(Nc3ccc4[nH]ccc4c3)n2)cc(OC)c1OC` [compound 55, (2-(1H-indol-5-yl amino)thiazol-4-yl)(3,4,5-trimethoxyphenyl)methanone], the “permeability” value in the data set with HUVEC monolayers is on record as “increased permeability”. Moreover, the “Tumor size Start” value in the data set on PC-3/TxR xenografts (PO 10 mpk, b.i.d × 5/w, end point day 26) worked out at 143 ± 44 mm^3; in the data set on PC-3/TxR xenografts (PO 30 mpk, b.i.d × 5/w, end point day 26), 134 ± 34 mm^3. In addition, the TGI in the data set on PC-3/TxR xenografts (p.o. 30 mg/kg b.i.d., five times a week, day 19 to 26) is on record as above 100%. For the same compound, the “competition with colchicine-tubulin binding” value in data set [4] was “competed effectively with colchicine”. Further, the “Half-life in HLM (Phase I)” value in data set [2] (Table 16B, Phase I) stood at 30 min. Moreover, the “Half-life in HLM (Phase I + II)” value in [2] (Table 16B, Phase I + II (UDP-glucuronic acid present)) is on record as 43 min.
